This is an account of results in patent publication US20090176776A1, “SMALL MOLECULE INHIBITORS OF HIV-1 CAPSID ASSEMBLY” (UNIVERSITY OF ALABAMA AT BIRMINGHAM, priority 2005, published 2009).

SMILES strings stand for the structures.

For series [1], the target named is T1, recombinant HIV-1 capsid protein (CA) (Human immunodeficiency virus type 1 group M subtype B, UniProt P12493).
T1 construct: recombinant HIV-1 capsid protein (CA); made in house
The series can be described thus: Turbidity based HIV-1 capsid assembly assay. The class given is biochemical. Particulars: initial assembly rate by turbidity; twofold dilutions over a 128 fold range; 30 μM CA, 2.25 M NaCl. The protocol:
The kinetics can be followed by monitoring the increase of turbidity using a spectrophotometer. The IC50 of the chemical compound tested is determined by titration. As the C-domain inhibits capsid assembly by forming CA-C-domain heterodimers, the effect of added C-terminal domain on the rate of assembly was evaluated by plotting the rate of assembly versus C-terminal domain concentration.
Soluble HIV-1 capsid protein can be triggered to assemble into tubes similar in diameter and morphology to intact cores by dilution into high iconic strength buffer. The kinetics of assembly can be followed by monitoring the increase in turbidity using a spectrophotometer (Lanham et al., J. Virol., 76:6900, 2002). This assembly assay was adapted to a 96-well, microplate format to allow for medium-throughput screening of compounds by measuring turbidity in a Nepeloskan Ascent plate reader (Thermo Electron Corp., UK). A DIVERSet™ library of 10,000 low molecular weight, “drug-like” compounds was purchased from ChemBridge Corp. (San Diego, Calif.). This library was selected for its potential bioavailability and application based on a pharmacophore diversity analysis. The average molecular weight of the compounds is 347 g/mol, the range being 200-596 g/mol. The compounds came plated in 96-well plates and solubilized in DMSO at 5 mgs/mL.
Turbidity based assay. A 1.5 μL aliquot of compound was diluted 90-fold into 50 mM Na2HPO4, […] buffer, pH 8 in an optically clear 96-well plate. The plate containing compounds and salt was read to check for compound solubility and to serve as a background reading for the assay. To initiate the assembly reaction, 15 μL of […] stock (in 50 mM Na2HPO4 pH 8) of recombinant HIV-1 capsid protein (CA), purified as described (Lanman et al., J. Virol., 76:6900, 2002), was added to each well of the 96-well plate using a multi-channel pipettor. […] Furthermore, the halftime of the assembly reaction is ˜5 minutes so reading the plate in thirds prevented loss of initial rate data. Therefore, CA was added to the first 4 lanes, the reactions followed for ten minutes, reading was paused, CA was then added to the next four lanes and the process repeated. Instrument settings are as follows: PMT gain of 500 V, lamp at 10V, and integration time of 60 ms. The data were exported to a custom designed Excel spreadsheet that allowed simultaneous plotting of kinetic curves.
Recombinant CA protein was purified as previously described and stored at 300 μM at −80° C. A turbidity based assembly assay, described above, was adapted to a 96-well, microplate format to allow for medium-throughput screening of compounds in a Nepheloskan Ascent plate reader (Thermo Electron Corp., UK). A 1.5 μL aliquot of compound or DMSO was diluted 90-fold into 50 mM Na2HPO4, 2.25 M NaCl buffer, pH 8 in an optically clear 96-well plate. To initiate the assembly reaction, 15 μL of the 300 μM stock (in 50 mM Na2HPO4 pH 8) of recombinant HIV-1 capsid protein (CA), was added to each well of the 96-well plate using a multi-channel pipettor.

The nature of series [2]: MTS score (Table 1; method not described). The series is classed as cell-based.
Series [3] relates to HIV-1NL43. The series can be described thus: Anti-HIV assay (single round), infectivity of virus produced, titered on TZM-b1 cells. The series is classed as cell-based. Particulars: virus from NL43-transfected 293T cells, 72 hours; luciferase after two days; read-out: Infectivity 50%. The protocol:
(§1) Anti-HIV Assays (Single Round). The inhibitory effect of the compounds on virus production and infectivity were determined by measuring the level of p24 produced in the presence of various concentrations of compounds from HEK-293 cells transiently transfected with pNL43 and by titering the virus on TZM-b1 cells. Briefly, 2.5×10^5 HEK-293 cells/ml were transfected with pNL43 using FuGene 6. Four hours post transfection the cells were plated in 96-well plates containing 100 μl of various concentrations of compounds (0-75 μM or 0-300 μM for mock transfected cells) in triplicate. At 72-hours post transfection virus supernatant was collected and stored at −80° C. until analysis. The level of p24 produced at each compound concentration was determined relative to the level produced in the presence of the DMSO only controls using HIV-1 p24 enzyme-linked immunosorbent assay (ELISA) (Beckman-Coulter). To determine the infectivity of the virus produced TZM-b1 cells were plated at 1×10^5 cells/ml in 100 μL in 96-well plates overnight. The next day, the media was replaced with 75 μL DMEM supplemented with 1% FBS, 1× PSG and 40 μg/ml DEAE Dextran and 25 μL of viral supernatant from the HEK-293 cells was added to each well. Three hours later 100 μL of DMEM with 7% FBS was added to each well. Two days after infection the cells were lysed and the level of luciferase expression was determined using the Bright-Glo assay.
(§2) FIGS. 12-18 show the anti-HIV assays for the examples of chemical compounds used according to the invention. After in-vitro assay, the chemical compounds in FIGS. 12-18 were selected for screening for cell viability and toxicity. Jurkat cells assay was used as screening assay. In Jurkat cells assay, JLTRG-R5 cells were used as Indicator cells and MOLT4 cells as Producer cells of NL43 and BAL virus. 96 chemical compounds were plated at seven different concentration from 75 μM to 0 μM at three-fold serial dilutions in 384 well plate. After five days, GFP expression was read. Cell viability was monitored with Alamar Blue assay. Luc M7 assay was designed to measure inhibitory activity of the chemical compounds to viral replication. After infection of cells with YU2 virus, plate cells in 96-well plate in the presence of six concentration of compounds in DMSO. At day 6, the number of cells in wells were read with Cell Titer Glo kit or by counting the number of cells infected with Bright Glo kit. 293T cells assay was designed to determine the toxicity. 293T cells were transfected with NL43. After four hours, transfected cells were plated in 96-well plate in DMSO and 2 μM Indinavir. 72 hours later, viral supernatant was collected and plated on JC53BL. Luciferase expression was measure after two days and p24 analysis was conducted with 1:1000 and 1:2000 dilutions.

Series [4] deals with HIV-1NL43. The series can be described thus: Anti-HIV assay (single round), p24 production by pNL43-transfected cells (ELISA). The series is classed as cell-based. The note with it: p24 in supernatant of NL43-transfected 293T cells, 72 hours; read-out: p24 50%. The protocol:
as §1, §2
A general note: In an ELISA, binding on a coated surface is turned into a signal by an enzyme label.

The next series relates to 293T cells. The series is described as follows: Toxicity in 293T cells. The series is classed as cell-based, human. Further details: unit not given beside the values. The method, then:
as §1, §2

Regarding `Cc1ncc(C[n+]2csc(CCOC(=O)C3C4CC5CC(C4)CC3C5)c2C)c(N)n1.Cl.[Cl-]` (centres unmarked) [Compound 26], the IC50 in series [1] came to 28 µM; with HIV-1NL43 [3], 17.6 µM; in the series with HIV-1NL43 [4], 60.2 µM. Further, the “MTS AVG 4 (No Effect)” value in series [2] (average of the MTS scores at 10, 30 and 100 μM) is recorded as 4.000. Further, the “MTS 10 μM” value in series [2] (score at nominal 10 μM, 4 = No Effect) came to 4. The “MTS 30 μM” value in series [2] (score at nominal 30 μM, 4 = No Effect) is 4. Also, in series [2] (score at nominal 100 μM, 4 = No Effect), the “MTS 100 μM” value worked out at 4. Moreover, the TC50% with 293T cells is listed as 193.
